# In patent publication US20110160196A1, “FACTOR XA INHIBITORS” (Millennium Pharmaceuticals, Inc., priority 2007, published 2011):
# Target: T1, human plasma protein factor Xa (Homo sapiens, UniProt P00742)
# T1 construct: The human plasma protein factor Xa was purchased; purchased Haematologic Technologies (Essex Junction, Vt.); host or cells: human plasma
# Test: Factor Xa IC50 determination (cleavage of paranitroanilide substrate S-2765)
# Assay type: biochemical
# Conditions: factor Xa 1 nM, S-2765 100 μM, Tris buffered saline pH 7.4, read at 405 nm
# Text: This example illustrates methods for evaluating the compounds of the invention, along with results obtained for such assays. The in vitro and in vivo human Factor Xa activities of the inventive compounds can be determined by various procedures known in the art, such as a test for their ability to inhibit the activity of human plasma Factor Xa. […] The IC50 value is the concentration (in nM) of the compound required to provide 50% inhibition of human Factor Xa proteolytic activity.
# An in vitro assay for detecting and measuring inhibition activity against Factor Xa is as follows:
# The substrate S-2765 (Z-D-Arg-Gly-Arg-pNA.HCl) was obtained from Diapharma (West Chester, Ohio).
# The human plasma protein factor Xa was purchased from Haematologic Technologies (Essex Junction, Vt.).
# All assays, which are performed in 96-well microtiter plates, measure proteolytic activity of the enzyme (factor Xa) by following cleavage of a paranitroanilide peptide substrate. The assay buffer used for proteolytic assays was Tris buffered saline (20 mM Tris, 150 mM NaCl, 5 mM CaCl2, 0.1% Bovine serum albumin (BSA), 5% Dimethly Sulfoxide (DMSO) pH 7.4). In a 96-well microtiter plate, inhibitor was serially diluted to give a range of final concentrations from 0.01 nM to 10 μM. Duplicate sets of wells were assayed and control wells without inhibitor were included. Enzyme was added to each well, (factor Xa concentration=1 nM), the plate was shaken for 5 seconds and then incubated for 5 minutes at room temperature. S-2765 was added (100 μM final) and the plate was shaken for 5 seconds (final volume in each well was 200 μl). The degree of substrate hydrolysis was measured at 405 nm on a Thermomax plate reader (Molecular Devices, Sunnyvale, Calif.) for 2 minutes. The initial velocities of substrate cleavage (mOD/min), for each range of inhibitor concentrations, were fitted to a four parameter equation using Softmax data analysis software. The parameter C, derived from the resulting curve-fit, corresponded to the concentration for half maximal inhibition (IC50).
# T1 sequence (P00742 235-488 limits assumed): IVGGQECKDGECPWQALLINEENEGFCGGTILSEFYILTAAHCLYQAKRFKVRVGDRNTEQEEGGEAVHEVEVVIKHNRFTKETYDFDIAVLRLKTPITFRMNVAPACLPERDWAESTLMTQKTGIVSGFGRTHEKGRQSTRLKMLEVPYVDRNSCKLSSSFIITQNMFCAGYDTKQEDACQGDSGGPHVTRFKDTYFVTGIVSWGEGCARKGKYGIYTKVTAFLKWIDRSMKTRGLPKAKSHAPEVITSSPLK
# T1 sequence (P00742 41-179 partner limits assumed): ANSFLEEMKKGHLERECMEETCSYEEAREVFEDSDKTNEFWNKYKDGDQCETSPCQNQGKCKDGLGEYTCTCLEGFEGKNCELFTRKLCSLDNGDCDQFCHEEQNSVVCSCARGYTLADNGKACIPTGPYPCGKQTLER
row,IC50 [nM],SMILES
1,≤ 100,"O=C(NCc1cn(-c2ccc(N3CCCCC3=O)cc2N2CCSCC2)nn1)c1ccc(Cl)s1 [Compound 157, 5-Chloro-N-((1-(4-(2-oxopiperidin-1-yl)-2-thiomorpholinophenyl)-1H-1,2,3-triazol-4-yl)methyl)thiophene-2-carboxamide]"
2,≤ 100,"O=C(NCc1cn(-c2ccc(-n3ccccc3=O)cc2NCCO)nn1)c1ccc(Cl)s1 [Compound 26, 5-Chloro-N-((1-(2-(2-hydroxyethylamino)-4-(2-oxopyridin-1(2H)-yl)phenyl)-1H-1,2,3-triazol-4-yl)methyl)thiophene-2-carboxamide]"
3,≤ 100,"CNc1ccc(-c2cc(-n3ccccc3=O)ccc2-n2cc(CNC(=O)c3ccc(Cl)s3)nn2)cn1 [Compound 146, 5-Chloro-N-((1-(2-(6-(methylamino)pyridin-3-yl)-4-(2-oxopyridin-1(2H)-yl)phenyl)-1H-1,2,3-triazol-4-yl)methyl)thiophene-2-carboxamide]"
4,≤ 100,"NCc1cc(-n2ccccc2=O)ccc1-n1cc(CNC(=O)c2ccc(Cl)s2)nn1 [Compound 120, N-((1-(2-(Aminomethyl)-4-(2-oxopyridin-1(2H)-yl)phenyl)-1H-1,2,3-triazol-4-yl)methyl)-5-chlorothiophene-2-carboxamide]"
5,≤ 100,"COCCOc1cc(-n2ccccc2=O)ccc1-n1cc(CNC(=O)c2ccc(Cl)s2)nn1 [Compound 76, 5-Chloro-N-((1-(2-(2-methoxyethoxy)-4-(2-oxopyridin-1(2H)-yl)phenyl)-1H-1,2,3-triazol-4-yl)methyl)thiophene-2-carboxamide]"
6,≤ 100,"COCCN(C)c1cc(-n2ccccc2=O)ccc1-n1cc(CNC(=O)c2ccc(Cl)s2)nn1 [Compound 29, 5-Chloro-N-((1-(2-((2-mcthoxyethyl)(methyl)amino)-4-(2-oxopyridin-1(2H)-yl)phenyl)-1H-1,2,3-triazol-4-yl)methyl)thiophene-2-carboxamide]"
7,≤ 100,"O=C(NCc1cn(-c2ccc(-n3ccccc3=O)cc2OCc2ncon2)nn1)c1ccc(Cl)s1 [Compound 175, N-((1-(2-((1,2,4-Oxadiazol-3-yl)methoxy)-4-(2-oxopyridin-1(2H)-yl)phenyl)-1H-1,2,3-triazol-4-yl)methyl)-5-chlorothiophene-2-carboxamide]"
8,100 to 500,"NC(=O)CCNC(=O)c1cc(-n2ccccc2=O)ccc1-n1cc(CNC(=O)c2ccc(Cl)s2)nn1 [Compound 147, N-((1-(2-(3-Amino-3-oxopropylcarbamoyl)-4-(2-oxopyridin-1(2H)-yl)phenyl)-1H-1,2,3-triazol-4-yl)methyl)-5-chlorothiophene-2-carboxamide]"
9,≤ 100,"O=C(NCc1cn(-c2ccc(-n3ccccc3=O)cc2N2CCOCC2)nn1)c1ccc(Cl)s1 [Compound 5, 5-Chloro-N-((1-(2-morpholino-4-(2-oxopyridin-1(2H)-yl)phenyl)-1H-1,2,3-triazol-4-yl)methyl)thiophene-2-carboxamide]"
10,≤ 100,"CCS(=O)(=O)CCOc1cc(-n2ccccc2=O)ccc1-n1cc(CNC(=O)c2ccc(Cl)s2)nn1 [Compound 82, 5-Chloro-N-((1-(2-(2-(ethylsulfonyl)ethoxy)-4-(2-oxopyridin-1(2H)-yl)phenyl)-1H-1,2,3-triazol-4-yl)methyl)thiophene-2-carboxamide]"
11,100 to 500,"NC(=O)C1CCN(C(=O)c2cc(-n3ccccc3=O)ccc2-n2cc(CNC(=O)c3ccc(Cl)s3)nn2)CC1 [Compound 116, 1-(2-(4-((5-Chlorothiophene-2-carboxamido)methyl)-1H-1,2,3-triazol-1-yl)-5-(2-oxopyridin-1(2H)-yl)benzoyl)piperidine-4-carboxamide]"
12,≤ 100,"O=C(NCc1cn(-c2ccc(-n3ccccc3=O)cc2OCc2cccnc2)nn1)c1ccc(Cl)s1 [Compound 165, 5-Chloro-N-((1-(4-(2-oxopyridin-1(2H)-yl)-2-(pyridin-3-ylmethoxy)phenyl)-1H-1,2,3-triazol-4-yl)methyl)thiophene-2-carboxamide]"
13,≤ 100,"O=C(NCc1cn(-c2ccc(-n3ccccc3=O)cc2N2CCS(=O)(=O)CC2)nn1)c1ccc(Cl)s1 [Compound 12, 5-Chloro-N-((1-(4-(2-oxopyridin-1(2H)-yl)-2-((1,1-dioxo-)thiomorpholino)phenyl)-1H-1,2,3-triazol-4-yl)methyl)thiophene-2-carboxamide]"
14,≤ 100,"NC(=O)N1CCN(c2cc(-n3ccccc3=O)ccc2-n2cc(CNC(=O)c3ccc(Cl)s3)nn2)CC1 [Compound 15, 4-(2-(4-((2-Chlorothiophene-5-carboxamido)methyl)-1H-1,2,3-triazol-1-yl)-5-(2-oxopyridin-1(2H)-yl)phenyl)piperazine-1-carboxamide]"
15,100 to 500,"NCCCNC(=O)c1cc(-n2ccccc2=O)ccc1-n1cc(CNC(=O)c2ccc(Cl)s2)nn1 [Compound 112, N-((1-(2-(3-aminopropylcarbamoyl)-4-(2-oxopyridin-1(2H)-yl)phenyl)-1H-1,2,3-triazol-4-yl)methyl)-5-chlorothiophene-2-carboxamide]"
16,≤ 100,"O=C(NCc1cn(-c2ccc(-n3ccccc3=O)cc2OCCc2cccnc2)nn1)c1ccc(Cl)s1 [Compound 174, 5-Chloro-N-((1-(4-(2-oxopyridin-1(2H)-yl)-2-(2-(pyridin-3-yl)ethoxy)phenyl)-1H-1,2,3-triazol-4-yl)methyl)thiophene-2-carboxamide]"
17,≤ 100,"O=C(NCc1cn(-c2ccc(-n3ccccc3=O)cc2N2CCC[C@H](O)C2)nn1)c1ccc(Cl)s1 [Compound 23, 5-Chloro-N-((1-(2-((S)-3-hydroxypiperidin-1-yl)-4-(2-oxopyridin-1(2H)-yl)phenyl)-1H-1,2,3-triazol-4-yl)methyl)thiophene-2-carboxamide]"
18,≤ 100,"CN(C)c1cc(-n2ccccc2=O)ccc1-n1cc(CNC(=O)c2ccc(Cl)s2)nn1 [Compound 2, 5-Chloro-N-((1-(2-(dimethylamino)-4-(2-oxopyridin-1(2H)-yl)phenyl)-1H-1,2,3-triazol-4-yl)methyl)thiophene-2-carboxamide]"
19,≤ 100,"O=C(NCc1cn(-c2ccc(-n3ccccc3=O)cc2OCCn2cccn2)nn1)c1ccc(Cl)s1 [Compound 156, N-((1-(2-(2-(1H-Pyrazol-1-yl)ethoxy)-4-(2-oxopyridin-1(2H)-yl)phenyl)-1H-1,2,3-triazol-4-yl)methyl)-5-chlorothiophene-2-carboxamide]"
20,≤ 100,"O=C(NCc1cn(-c2ccc(-n3ccccc3=O)cc2-c2cccnc2)nn1)c1ccc(Cl)s1 [Compound 126, 5-Chloro-N-((1-(4-(2-oxopyridin-1(2H)-yl)-2-(pyridin-3-yl)phenyl)-1H-1,2,3-triazol-4-yl)methyl)thiophene-2-carboxamide]"
21,≤ 100,"O=C(NCc1cn(-c2ccc(-n3ccccc3=O)cc2N2CCCC2)nn1)c1ccc(Cl)s1 [Compound 3, 5-Chloro-N-((1-(4-(2-oxopyridin-1(2H)-yl)-2-(pyrrolidin-1-yl)phenyl)-1H-1,2,3-triazol-4-yl)methyl)thiophene-2-carboxamide]"
22,≤ 100,"O=C(NCc1cn(-c2ccc(-n3ccccc3=O)cc2N2CCC(O)CC2)nn1)c1ccc(Cl)s1 [Compound 21, 5-Chloro-N-((1-(2-(4-hydroxypiperidin-1-yl)-4-(2-oxopyridin-1(2H)-yl)phenyl)-1H-1,2,3-triazol-4-yl)methyl)thiophene-2-carboxamide]"
23,≤ 100,CN(C)CCOc1cc(-n2ccccc2=O)ccc1-n1cc(CNC(=O)c2ccc(Cl)s2)nn1 [Compound 85]
